Experimental data published in PubChem BioAssay AID330 (DTP/NCI, 2004).
Where “and” joins values, the source holds several entries; their conditions need not be identical. Identical values can stand only once. Toxic doses and inconclusive results are not listed. The calls were made as follows: active = survival T/C of 150% or more; inactive = T/C below 125% in these data.

System: P388 leukemia ip, CD2F1 mice, survival T/C
Test: NCI In Vivo Anticancer Drug Screen. Data for tumor model P388 Leukemia (intraperitoneal) in CD2F1 (CDF1) mice
Conditions: endpoint: median survival time, higher = longer survival
Outline: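 Mice carrying the transplanted tumor received test compound or vehicle. Survival was recorded in each group, and the value is the treated-group measurement divided by that of the vehicle-treated control group.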

[1] = dose: 60.0 mg/kg/injection, schedule: Q01DX005 (ip), vehicle: saline with Tween-80
[2] = dose: 120.0 mg/kg/injection, schedule: Q01DX005 (ip), vehicle: saline with Tween-80

Measured: T/C

Cc1cc(NCCCN(C)C)c2c(ccc3c(NCCCN(C)C)cc(C)nc32)n1
inactive: dose: 6.0 mg/kg/injection, schedule: Q01DX009 (ip), vehicle: suspension in saline 98 % of control | dose: 12.0 mg/kg/injection, schedule: Q01DX009 (ip), vehicle: suspension in saline 104 % of control | dose: 24.0 mg/kg/injection, schedule: Q01DX009 (ip), vehicle: saline with Tween-80 96 % of control | dose: 24.0 mg/kg/injection, schedule: Q01DX009 (ip), vehicle: suspension in saline 115 % of control

O=C(c1ccccc1)N(C(=S)N(C(=O)c1ccccc1)c1ccccc1)c1ccccc1
inactive: [1] 100 % of control | [2] 91 % of control | dose: 240.0 mg/kg/injection, schedule: Q01DX005 (ip), vehicle: saline with Tween-80 95 % of control

O=C1CSC(c2ccc(Cl)cc2)N1N1C(=O)CSC1c1ccc(Cl)cc1 (stereo not drawn)
inactive: dose: 60.0 mg/kg/injection, schedule: Q01DX005 (ip), vehicle: Klucel (hydroxypropylcellulose) (HPC) 99 % of control | dose: 120.0 mg/kg/injection, schedule: Q01DX005 (ip), vehicle: Klucel (hydroxypropylcellulose) (HPC) 91 % of control | dose: 240.0 mg/kg/injection, schedule: Q01DX005 (ip), vehicle: Klucel (hydroxypropylcellulose) (HPC) 90 % of control

Cc1cccc(OC(=O)Nc2ccc(C(=O)O)c(O)c2)c1
inactive: [1] 106 % of control | [2] 90 % of control

NC(=O)/C=C/C(=O)c1c(Cl)cccc1Cl
inactive: dose: 1.56 mg/kg/injection, schedule: Q01DX009 (ip), vehicle: saline with Tween-80 113 % of control | dose: 3.13 mg/kg/injection, schedule: Q01DX009 (ip), vehicle: saline with Tween-80 111 % of control | dose: 6.25 mg/kg/injection, schedule: Q01DX009 (ip), vehicle: saline with Tween-80 94 % of control | dose: 12.5 mg/kg/injection, schedule: Q01DX009 (ip), vehicle: saline with Tween-80 86 % of control and 87 % of control

O=P(c1ccccc1)(c1ccccc1)c1ccccc1.O=P(c1ccccc1)(c1ccccc1)c1ccccc1.O=P(c1ccccc1)(c1ccccc1)c1ccccc1.O=P(c1ccccc1)(c1ccccc1)c1ccccc1.[Co+2].[O-][Cl+3]([O-])([O-])O
inactive: dose: 50.0 mg/kg/injection, schedule: Q01DX009 (ip), vehicle: saline with Tween-80 96 % of control | dose: 100.0 mg/kg/injection, schedule: Q01DX009 (ip), vehicle: saline with Tween-80 99 % of control

O=C(Nc1cc(Cl)ccc1C(=O)O)c1cccc(C[n+]2ccccc2)c1
inactive: dose: 12.5 mg/kg/injection, schedule: Q01DX005 (ip), vehicle: saline with Tween-80 91 % of control | dose: 25.0 mg/kg/injection, schedule: Q01DX005 (ip), vehicle: saline with Tween-80 102 % of control | dose: 50.0 mg/kg/injection, schedule: Q01DX005 (ip), vehicle: saline with Tween-80 102 % of control

C[CH2][Sn]([c]1ccccc1)[c]1ccccc1
inactive: dose: 12.5 mg/kg/injection, schedule: Q01DX009 (ip), vehicle: saline 109 % of control | dose: 25.0 mg/kg/injection, schedule: Q01DX009 (ip), vehicle: saline 114 % of control | dose: 25.0 mg/kg/injection, schedule: Q04DX003 (ip), vehicle: saline 108 % of control | dose: 50.0 mg/kg/injection, schedule: Q01DX009 (ip), vehicle: saline 114 % of control and 116 % of control | dose: 50.0 mg/kg/injection, schedule: Q04DX003 (ip), vehicle: saline 115 % of control | dose: 100.0 mg/kg/injection, schedule: Q04DX003 (ip), vehicle: saline 109 % of control

O=C(O)Cc1ccc(C2CCCCC2)cc1
inactive: dose: 100.0 mg/kg/injection, schedule: Q04DX003 (ip), vehicle: Klucel (hydroxypropylcellulose) (HPC) 90 % of control | dose: 200.0 mg/kg/injection, schedule: Q04DX003 (ip), vehicle: Klucel (hydroxypropylcellulose) (HPC) 100 % of control | dose: 400.0 mg/kg/injection, schedule: Q04DX003 (ip), vehicle: Klucel (hydroxypropylcellulose) (HPC) 100 % of control

Cn1cnc(=O)c2n[nH]nc21
inactive: dose: 50.0 mg/kg/injection, schedule: Q01DX005 (ip), vehicle: Klucel (hydroxypropylcellulose) (HPC) 100 % of control | dose: 100.0 mg/kg/injection, schedule: Q01DX005 (ip), vehicle: Klucel (hydroxypropylcellulose) (HPC) 100 % of control | dose: 200.0 mg/kg/injection, schedule: Q01DX005 (ip), vehicle: Klucel (hydroxypropylcellulose) (HPC) 87 % of control
